The text below walks through data of patent US6340693B1, “Protective agent for nervous system structural cells” (Toray Industries, Inc., priority 1997, dated 2002).

Format in all cases: cell-based
Experiment [1] relates to nerve cells derived from a rat fetus (cerebral cortex). Nature of the experiment: Survival of cultured isolated nerve cells (cerebral cortex). To be noted: serum-free DF medium, 3 days culture, 1 and 10 μM beraprost sodium, student t-test vs control. From the text:
(§1) Effect of improving survival rate of cultured isolated nerve cells:
(§2) The protective effect of beraprost sodium on nerve cells was examined by using nerve cells derived from a rat fetus. The cerebral cortex and hippocampus were obtained from the brain of a rat fetus of 17 days age, and isolated nerve cells were obtained therefrom by trypsin and pipetting treatment. The thus-obtained cells were inoculated into a 48-well culture plate coated with polylysine at a cell concentration of 5×10^3 cells/cm^2; followed by culture in a DF medium containing no serum at 37° C. for 3 days. After completion of culture, the cells were fixed by formalin, and the number of cells having axons was measured under a microscope. Beraprost sodium was added in an amount of each of 1, 10 and 100 μM during culture.
(§3) The results are shown in FIG. 1 (In the figure, * and ** represent student t-test results. *: p<0.05 vs control. **: p<0.01 vs control. This applies to the description below). The nerve cells gradually died and fell under the conditions in this example, beraprost sodium prevented falling of the nerve cells, and increased the number of survival cells depending upon the concentration.

For experiment [2], the system named is nerve cells derived from a rat fetus (hippocampus). Nature of the experiment: Survival of cultured isolated nerve cells (hippocampus). The note with it: serum-free DF medium, 3 days culture, 10 μM beraprost sodium, student t-test vs control.
Source text: as §1, §2, §3

The subject of experiment [3] is Human glioma cells. In words: Human glioma cell disorder due to peroxide (TBH). As for the experimental part: Human glioma cells were separated from a patient of glioma (person), and then subjected to subculture in a 10% FCS-D-MEM medium (a Dulbecco's MEM medium (Nissui) containing 10% fetal calf serum). The cells were dispersed into single cells by trypsin-EDTA treatment, and then a 10% FCS-D-MEM medium was added to recover the cells, followed by centrifugation at 1200 rpm for 5 minutes. After centrifugation, the cells were prepared to 1×10^6 cells/ml by a HEPES buffer (Hanks' solution (Nissui) containing 15 mM HEPES, pH 7.4), and beraprost sodium (0.1 to 30 μM) was added to the cell solution, followed by incubation at 37° C. for 30 minutes. Then, […] of TBH (tertiary butyl hydroperoxide, Funakoshi) as a peroxide was added to the cell solution, followed by further incubation at 37° C. for 30 minutes. After reaction was stopped under ice cooling, some of the cells are collected, and divided into living cells and dead cells by trypan blue staining, followed by counting to determine the survival rate of the cells. The residual cells were centrifuged at 2000 rpm for 5 minutes, and then the amount of thiobarbituric acid reaction substance (TBARS amount) was measured according to the known method (Ohkawa, H., Ohnishi, N. and Yagi, K. Anal. Biochem., 95, 351-358 (1979)) and considered as an index of peroxidation of cell membrane lipid. […]

On to beraprost sodium, for which the “number of survival cells (cells having axons)” value in experiment [1] and in experiment [2] was “increase was significant” in each case. Besides, the “decrease in the survival rate of cells by TBH treatment (trypan blue staining)” value in experiment [3] (0.1 μM or more of beraprost sodium, 30 min pre-incubation, then 800 μm TBH for 30 min at 37° C.) is “significantly (p<0.01) suppressed”. Also, the “TBARS amount as an index of peroxidation of cell membrane lipid (increase by TBH treatment)” value in experiment [3] (beraprost sodium 0.1 to 30 μM, TBH-treated cells) is reported as “did not affect such an increase”.
